Measured values taken from US12502374B2, “Composition for preventing, alleviating, or treating inflammatory disease containing isookanin or salt thereof as active ingredient” (BioSpectrum, Inc., priority 2020, dated 2025).

Molecular target: Janus kinase 1 (Homo sapiens, UniProt P23458)
Test: Janus kinase 1 activity inhibition, HTRF KinEASE-TK kit (TR-FRET)
Type: biochemical
Settings: FIG. 1
Description: The effect of isookanin on the inhibition of Janus kinase 1 activity was measured using the HTRF KinEASE-TK kit (Cisbio, France). HTRF is a time-resolved fluorescence resonance energy transfer technology (TR-FRET) analysis method, which is applied to high-throughput screening (HTS) and is one of the methods widely used in drug development. From general cytokine measurement, enzyme activity, protein phosphorylation, protein-protein interaction, cAMP measurement, and the like can be measured by fluorescence through acceptor/donor reaction, and HTRF has an advantage in that, since measurement is carried out in two wavelength regions, it is possible to reduce interference from buffers and media. All components of the HTRF KinEase™-TK kit were handled according to the instructions. For kinases, the ability of a test substance to inhibit kinase activity is measured by allowing a kinase to react with an appropriate substrate in the presence or absence of a sample and capturing the phosphorylated substrate by a detection reagent. Briefly, the following two steps performed.
A kinase is allowed to react with an appropriate substrate in the presence and absence of a sample. Enzyme buffer is used as a control (−) instead of the sample, and the group treated with 100 nM of loxolitinib is used as a positive control. […]
Step 2. Fluorescence Detection […]

Sequence of Janus kinase 1 (P23458 whole entry, species assumed): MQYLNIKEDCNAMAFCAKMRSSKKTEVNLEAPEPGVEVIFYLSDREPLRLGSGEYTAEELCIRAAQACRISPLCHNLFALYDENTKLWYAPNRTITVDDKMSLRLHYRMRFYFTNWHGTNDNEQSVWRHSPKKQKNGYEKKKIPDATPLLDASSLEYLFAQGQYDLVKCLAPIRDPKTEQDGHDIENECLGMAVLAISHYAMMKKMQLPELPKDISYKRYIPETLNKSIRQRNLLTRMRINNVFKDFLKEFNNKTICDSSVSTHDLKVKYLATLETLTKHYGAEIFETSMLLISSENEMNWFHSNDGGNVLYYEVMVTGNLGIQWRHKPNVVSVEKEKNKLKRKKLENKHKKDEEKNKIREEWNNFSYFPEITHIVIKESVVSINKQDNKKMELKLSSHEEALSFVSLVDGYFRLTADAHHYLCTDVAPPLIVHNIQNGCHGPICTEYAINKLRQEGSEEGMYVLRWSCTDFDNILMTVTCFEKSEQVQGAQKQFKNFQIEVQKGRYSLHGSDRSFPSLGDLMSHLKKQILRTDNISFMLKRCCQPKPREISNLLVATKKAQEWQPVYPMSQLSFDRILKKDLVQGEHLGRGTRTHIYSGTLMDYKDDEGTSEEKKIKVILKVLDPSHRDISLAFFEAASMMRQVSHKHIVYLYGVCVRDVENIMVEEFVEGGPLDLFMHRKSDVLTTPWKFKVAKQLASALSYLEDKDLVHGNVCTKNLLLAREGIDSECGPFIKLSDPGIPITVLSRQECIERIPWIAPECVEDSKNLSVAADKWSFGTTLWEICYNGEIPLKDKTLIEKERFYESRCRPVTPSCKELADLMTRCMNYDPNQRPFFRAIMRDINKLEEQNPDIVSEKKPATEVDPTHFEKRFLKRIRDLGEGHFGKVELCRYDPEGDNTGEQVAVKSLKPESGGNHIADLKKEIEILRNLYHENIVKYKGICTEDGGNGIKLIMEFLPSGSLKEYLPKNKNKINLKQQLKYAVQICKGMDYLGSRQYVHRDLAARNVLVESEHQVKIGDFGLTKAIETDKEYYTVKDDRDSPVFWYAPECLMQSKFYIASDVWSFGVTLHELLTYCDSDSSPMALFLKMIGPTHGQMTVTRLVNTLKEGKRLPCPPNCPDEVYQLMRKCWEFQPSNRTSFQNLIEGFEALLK

O=C1C[C@@H](c2ccc(O)c(O)c2)Oc2c1ccc(O)c2O [isookanin]
inhibition of Janus kinase 1 activity: significantly inhibited
